Measurements: the supplement of paper PMC11451515

Test system: P12-Ichikawa
Assay: cell viability relative to DMSO control; higher = less cytotoxic
Details: 48 h
Outline: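 Viability is a per-plate percentage relative to DMSO wells, with cell-free wells as background. CellTiter-Glo One luminescence was read after 48 h at 37°C on 1536-well plates (5 μl) of NOMO1 or SEM (500 cells/well) or P12-Ichikawa (1000 cells/well) leukemia cells. The cells had been adapted for at least four passages in each medium and pin-dosed with library compounds in DMSO from 47 μM to 0.79 nM in 11 threefold steps.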

[1] = HPLM + 10% dialyzed FBS, 0.000781 µM
[2] = HPLM + 10% dialyzed FBS, 0.00234 µM
[3] = HPLM + 10% dialyzed FBS, 0.00702 µM
[4] = HPLM + 10% dialyzed FBS, 0.0211 µM
[5] = HPLM + 10% dialyzed FBS, 0.0632 µM
[6] = HPLM + 10% dialyzed FBS, 0.19 µM
[7] = HPLM + 10% dialyzed FBS, 0.569 µM
[8] = HPLM + 10% dialyzed FBS, 1.71 µM
[9] = HPLM + 10% dialyzed FBS, 5.12 µM
[10] = HPLM + 10% dialyzed FBS, 15.4 µM
[11] = HPLM + 10% dialyzed FBS, 46.1 µM
[12] = RPMI 5 mM glucose + 10% FBS, 0.000781 µM
[13] = RPMI 5 mM glucose + 10% FBS, 0.00234 µM
[14] = RPMI 5 mM glucose + 10% FBS, 0.00702 µM
[15] = RPMI 5 mM glucose + 10% FBS, 0.0211 µM
[16] = RPMI 5 mM glucose + 10% FBS, 0.0632 µM
[17] = RPMI 5 mM glucose + 10% FBS, 0.19 µM
[18] = RPMI 5 mM glucose + 10% FBS, 0.569 µM
[19] = RPMI 5 mM glucose + 10% FBS, 1.71 µM
[20] = RPMI 5 mM glucose + 10% FBS, 5.12 µM
[21] = RPMI 5 mM glucose + 10% FBS, 15.4 µM
[22] = RPMI 5 mM glucose + 10% FBS, 46.1 µM
[23] = RPMI 5 mM glucose + 10% dialyzed FBS, 0.000781 µM
[24] = RPMI 5 mM glucose + 10% dialyzed FBS, 0.00234 µM
[25] = RPMI 5 mM glucose + 10% dialyzed FBS, 0.00702 µM
[26] = RPMI 5 mM glucose + 10% dialyzed FBS, 0.0211 µM
[27] = RPMI 5 mM glucose + 10% dialyzed FBS, 0.0632 µM
[28] = RPMI 5 mM glucose + 10% dialyzed FBS, 0.19 µM
[29] = RPMI 5 mM glucose + 10% dialyzed FBS, 0.569 µM
[30] = RPMI 5 mM glucose + 10% dialyzed FBS, 1.71 µM
[31] = RPMI 5 mM glucose + 10% dialyzed FBS, 5.12 µM
[32] = RPMI 5 mM glucose + 10% dialyzed FBS, 15.4 µM
[33] = RPMI 5 mM glucose + 10% dialyzed FBS, 46.1 µM

Row | Structure (SMILES) | cell viability [1] | cell viability [2] | cell viability [3] | cell viability [4] | cell viability [5] | cell viability [6] | cell viability [7] | cell viability [8] | cell viability [9] | cell viability [10] | cell viability [11] | cell viability [12] | cell viability [13] | cell viability [14] | cell viability [15] | cell viability [16] | cell viability [17] | cell viability [18] | cell viability [19] | cell viability [20] | cell viability [21] | cell viability [22] | cell viability [23] | cell viability [24] | cell viability [25] | cell viability [26] | cell viability [27] | cell viability [28] | cell viability [29] | cell viability [30] | cell viability [31] | cell viability [32] | cell viability [33]
1 | CC[C@]1(O)C[C@@H]2CN(CCc3c([nH]c4ccccc34)[C@@](C(=O)OC)(c3cc4c(cc3OC)N(C)[C@H]3[C@@](O)(C(N)=O)[C@H](O)[C@]5(CC)C=CCN6CC[C@]43[C@@H]65)C2)C1 | 112% | 109% | 112% | 97.5% | 78.4% | 18.3% | 20.5% | 14.2% | 7.56% | 7.86% | 9.96% | 109% | 115% | 115% | 98.6% | 65.8% | 16.7% | 22.7% | 14% | 8.37% | 6.73% | 6.12% | 111% | 103% | 106% | 104% | 101% | 34.3% | 22.8% | 29.1% | 13.8% | 10.1% | 11.5%
2 | CO/N=C(\C(=O)N[C@@H]1C(=O)N2C(C(=O)OCOC(=O)C(C)(C)C)=C(/C=C\c3scnc3C)CS[C@H]12)c1csc(N)n1 | 91.7% | 102% | 105% | 104% | 108% | 110% | 106% | 106% | 110% | 89.8% | 72.4% | 85.6% | 91.6% | 101% | 99.6% | 101% | 103% | 96.4% | 103% | 103% | 75.8% | 60.1% | 92% | 89.6% | 102% | 91.8% | 104% | 106% | 99.2% | 98.7% | 102% | 80.9% | 57.2%
3 | COc1cc(C)c(Sc2cnc(NC(=O)c3ccc(CNC(C)C(C)C)cc3)s2)cc1C(=O)N1CCN(C(C)=O)CC1 (configuration not stated) | 118% | 125% | 119% | 129% | 119% | 118% | 117% | 107% | 103% | 90.1% | 109% | – | – | – | – | – | – | – | – | – | – | – | – | – | – | – | – | – | – | – | – | – | –
4 | O=C(/C=C/c1ccc(O)cc1)c1ccc(O)cc1O | 108% | 98.4% | 95% | 109% | 106% | 104% | 103% | 95.9% | 99.6% | 87.8% | 43.1% | 108% | 103% | 110% | 105% | 111% | 108% | 98.3% | 98.5% | 107% | 65.9% | 11.7% | 105% | 101% | 109% | 106% | 119% | 113% | 104% | 97.3% | 95.5% | 41.8% | 9.51%
5 | OCCn1cc(-c2cnc3nnn(Cc4ccc5ncccc5c4)c3n2)cn1 | 116% | 116% | 116% | 110% | 112% | 110% | 110% | 107% | 103% | 98.9% | 75.4% | 108% | 115% | 114% | 107% | 106% | 122% | 115% | 101% | 100% | 99.6% | 86.5% | 108% | 122% | 114% | 118% | 122% | 115% | 115% | 109% | 112% | 96.9% | 88.6%
6 | O=C(Nc1cccnn1)N1CCC(=Cc2cccc(Oc3ccc(C(F)(F)F)cn3)c2)CC1 | 92.9% | 94.1% | 91.4% | 11.9% | 106% | 103% | 101% | 101% | 102% | 94.4% | 87.4% | 85% | 86.8% | 96% | 12.6% | 101% | 103% | 99.7% | 103% | 95.7% | 80.3% | 76.8% | 92% | 93.9% | 101% | 47.1% | 110% | 100% | 102% | 105% | 101% | 90.3% | 81.5%
7 | O=C1NC(=O)/C(=C/c2ccc(-c3ccc(F)cc3O)o2)S1 | 113% | 117% | 116% | 121% | 112% | 116% | 108% | 107% | 97.7% | 97.9% | 89.7% | 116% | 117% | 112% | 112% | 112% | 111% | 102% | 90.4% | 90.1% | 80% | 65.7% | 115% | 120% | 121% | 117% | 117% | 121% | 117% | 88.2% | 89.5% | 84.3% | 72.4%
8 | OC1=CC2=C(C(=C1)O)C(=O)\C(=C(/O2)C3=CC(=C(O)C=C3)O)O | 98.8% | 99.2% | 108% | 113% | 112% | 111% | 107% | 110% | 116% | 102% | 79.3% | 93.8% | 107% | 103% | 103% | 109% | 105% | 110% | 101% | 107% | 101% | 85.9% | 107% | 108% | 113% | 103% | 117% | 100% | 117% | 108% | 118% | 109% | 73.2%
